Measured values: patent US12384770B2, “Heterocyclic compound” (Takeda Pharmaceutical Company Limited, priority 2019, dated 2025)

Biological target: T1, HDAC6 enzyme (Homo sapiens, UniProt Q9UBN7)
T1 construct: HDAC6 enzyme prepared by transducing full length HDAC6 gene into Sf-9 insect cells; GST; purchased SignalChem; host or cells: Sf-9 insect cells
T1 sequence (Q9UBN7 1-1215): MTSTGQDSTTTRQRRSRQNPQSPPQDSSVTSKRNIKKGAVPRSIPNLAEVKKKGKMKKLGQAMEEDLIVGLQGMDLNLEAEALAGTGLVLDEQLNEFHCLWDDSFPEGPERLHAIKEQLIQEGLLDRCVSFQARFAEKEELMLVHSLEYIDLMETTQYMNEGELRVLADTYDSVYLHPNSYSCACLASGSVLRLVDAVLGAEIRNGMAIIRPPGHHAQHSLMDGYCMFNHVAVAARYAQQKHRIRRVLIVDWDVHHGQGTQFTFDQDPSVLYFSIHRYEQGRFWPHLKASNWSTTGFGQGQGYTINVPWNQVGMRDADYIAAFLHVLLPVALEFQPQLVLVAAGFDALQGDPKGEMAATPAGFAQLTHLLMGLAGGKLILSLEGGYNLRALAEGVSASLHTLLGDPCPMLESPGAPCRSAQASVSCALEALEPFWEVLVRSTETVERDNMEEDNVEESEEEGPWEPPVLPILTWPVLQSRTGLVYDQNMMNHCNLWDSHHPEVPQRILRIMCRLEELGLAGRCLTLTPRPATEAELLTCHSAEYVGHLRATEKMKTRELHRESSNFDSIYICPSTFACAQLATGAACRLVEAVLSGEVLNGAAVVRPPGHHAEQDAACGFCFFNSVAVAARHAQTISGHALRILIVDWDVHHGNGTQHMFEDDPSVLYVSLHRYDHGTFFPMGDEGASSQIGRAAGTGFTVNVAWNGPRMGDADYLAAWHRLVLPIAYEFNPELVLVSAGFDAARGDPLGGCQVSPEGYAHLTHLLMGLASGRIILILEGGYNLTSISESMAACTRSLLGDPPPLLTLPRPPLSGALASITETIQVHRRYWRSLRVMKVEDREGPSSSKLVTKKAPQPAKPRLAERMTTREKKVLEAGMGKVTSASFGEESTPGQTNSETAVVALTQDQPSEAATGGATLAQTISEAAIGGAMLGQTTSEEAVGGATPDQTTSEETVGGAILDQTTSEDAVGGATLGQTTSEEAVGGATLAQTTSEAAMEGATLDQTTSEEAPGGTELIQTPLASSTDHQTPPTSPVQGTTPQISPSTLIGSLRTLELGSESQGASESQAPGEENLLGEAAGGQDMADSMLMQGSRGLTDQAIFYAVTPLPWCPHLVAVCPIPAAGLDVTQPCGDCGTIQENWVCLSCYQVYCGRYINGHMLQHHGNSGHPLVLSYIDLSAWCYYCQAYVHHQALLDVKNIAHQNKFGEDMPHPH
Assay: HDAC6 enzyme inhibitory assay (HDAC-Glo I/II Assay kit)
Type: biochemical
Settings: wells without enzyme = 100% inhibition; for inhibition at 10 µM: read-out: HDAC6 inhibitory rate (%) (10 μM)
In short: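 Full-length GST-purified HDAC6 from Sf-9 cells preincubated with compound 60 min at room temperature in Tris-HCl pH 7.5 buffer with MgCl2, KCl, NaCl, glutathione, Tween-20. Substrate-developer reaction 20 min, luminescence read; no-enzyme wells set as 100% inhibition.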

Compound | HDAC6 inhibitory rate (%) (10 μM) (10 µM) | inhibition at 10 µM [%] | also measured
O=C1c2cc(-c3nnc(C(F)F)o3)ccc2CN1[C@H](c1ccccn1)[C@@H](O)c1ccc(F)cc1 (single isomer, unassigned) [Example 37, 6-[5-(difluoromethyl)-1,3,4-oxadiazol-2-yl]-2-[(1R*,2S*)-2-(4-fluorophenyl)-2-hydroxy-1-(pyridin-2-yl)ethyl]-2,3-dihydro-1H-isoindol-1-one] | 100 |  | 
O=C1c2cc(-c3nnc(C(F)F)o3)ccc2CN1[C@H](c1ccc(F)cc1)[C@@H](O)c1ccccc1 (single isomer, unassigned) [Example 45, 6-[5-(difluoromethyl)-1,3,4-oxadiazol-2-yl]-2-[(1R*,2S*)-1-(4-fluorophenyl)-2-hydroxy-2-phenylethyl]-2,3-dihydro-1H-isoindol-1-one] |  | 100 | 
O=C1c2cc(-c3nnc(C(F)F)o3)ccc2CN1[C@H](c1ccc(F)cc1)[C@@H](O)c1ccccc1 (single isomer, unassigned) [Example 46, 6-[5-(difluoromethyl)-1,3,4-oxadiazol-2-yl]-2-[(1R*,2S*)-1-(4-fluorophenyl)-2-hydroxy-2-phenylethyl]-2,3-dihydro-1H-isoindol-1-one] |  |  | HDAC6 inhibitory rate (%) (10 μM): 100%
O=C1c2cc(-c3nnc(C(F)F)o3)ccc2CN1[C@H](c1ccccc1)[C@@H](O)c1ccccn1 (single isomer, unassigned) [Example 47, 6-[5-(difluoromethyl)-1,3,4-oxadiazol-2-yl]-2-[(1R*,2R*)-2-hydroxy-1-phenyl-2-(pyridin-2-yl)ethyl]-2,3-dihydro-1H-isoindol-1-one] |  | 99 | 
O=C1c2cc(-c3nnc(C(F)F)o3)ccc2CN1[C@H](c1ccccc1)[C@@H](O)c1ccccn1 (single isomer, unassigned) [Example 48, 6-[5-(difluoromethyl)-1,3,4-oxadiazol-2-yl]-2-[(1R*,2R*)-2-hydroxy-1-phenyl-2-(pyridin-2-yl)ethyl]-2,3-dihydro-1H-isoindol-1-one] | 100 |  | 
O=C1c2cc(-c3nnc(C(F)F)o3)ccc2CN1[C@H](c1ccc(F)cc1)[C@@H](O)c1cccnc1 (single isomer, unassigned) [Example 49, 6-[5-(difluoromethyl)-1,3,4-oxadiazol-2-yl]-2-[(1R*,2S*)-1-(4-fluorophenyl)-2-hydroxy-2-(pyridin-3-yl)ethyl]-2,3-dihydro-1H-isoindol-1-one] |  | 99 | 
O=C1c2cc(-c3nnc(C(F)F)o3)ccc2CN1[C@H](c1ccc(F)c(F)c1)[C@@H](O)c1ccccn1 (single isomer, unassigned) [Example 50, 6-[5-(difluoromethyl)-1,3,4-oxadiazol-2-yl]-2-[(1R*,2R*)-1-(3,4-difluorophenyl)-2-hydroxy-2-(pyridin-2-yl)ethyl]-2,3-dihydro-1H-isoindol-1-one] |  | 99 | 
O=C1c2cc(-c3nnc(C(F)F)o3)ccc2CN1[C@H](c1ccc(F)c(F)c1)[C@@H](O)c1ccccn1 (single isomer, unassigned) [Example 51, 6-[5-(difluoromethyl)-1,3,4-oxadiazol-2-yl]-2-[(1R*,2R*)-1-(3,4-difluorophenyl)-2-hydroxy-2-(pyridin-2-yl)ethyl]-2,3-dihydro-1H-isoindol-1-one] |  |  | HDAC6 inhibitory rate (%) (10 μM): 99%
O=C1c2cc(-c3nnc(C(F)F)o3)ccc2CN1[C@H](c1ccc(F)cc1)[C@@H](O)c1cccnc1 (single isomer, unassigned) [Example 52, 6-[5-(difluoromethyl)-1,3,4-oxadiazol-2-yl]-2-[(1R*,2S*)-1-(4-fluorophenyl)-2-hydroxy-2-(pyridin-3-yl)ethyl]-2,3-dihydro-1H-isoindol-1-one] | 100 |  | 
O=C1c2cc(-c3nnc(C(F)F)o3)ccc2CN1[C@H](c1ccc(F)cc1)[C@@H](O)c1ccc(C(F)(F)F)nc1 (single isomer, unassigned) [Example 54, 6-[5-(difluoromethyl)-1,3,4-oxadiazol-2-yl]-2-{(1R*,2S*)-1-(4-fluorophenyl)-2-hydroxy-2-[6-(trifluoromethyl)pyridin-3-yl]ethyl}-2,3-dihydro-1H-isoindol-1-one] |  | 100 | 
O=C1c2cc(-c3nnc(C(F)F)o3)ccc2CN1[C@H](c1ccc(F)cn1)[C@@H](O)c1ccccn1 (single isomer, unassigned) [Example 59, 6-[5-(difluoromethyl)-1,3,4-oxadiazol-2-yl]-2-[(1R*,2R*)-1-(5-fluoropyridin-2-yl)-2-hydroxy-2-(pyridin-2-yl)ethyl]-2,3-dihydro-1H-isoindol-1-one] |  | 100 | 
O=C1c2cc(-c3nnc(C(F)F)o3)ccc2CN1[C@H](c1ccc(F)cn1)[C@@H](O)c1ccccn1 (single isomer, unassigned) [Example 60] | 99 |  | 
O=C1c2cc(-c3nnc(C(F)F)o3)ccc2CN1[C@H](c1ccccn1)[C@@H](O)c1cccc(F)c1 (single isomer, unassigned) [Example 61, 6-[5-(difluoromethyl)-1,3,4-oxadiazol-2-yl]-2-[(1R*,2S*)-2-(3-fluorophenyl)-2-hydroxy-1-(pyridin-2-yl)ethyl]-2,3-dihydro-1H-isoindol-1-one] |  | 100 | 
O=C1c2cc(-c3nnc(C(F)F)o3)ccc2CN1[C@H](c1ccccn1)[C@@H](O)c1cccc(F)c1 (single isomer, unassigned) [Example 62, 6-[5-(difluoromethyl)-1,3,4-oxadiazol-2-yl]-2-[(1R*,2S*)-2-(3-fluorophenyl)-2-hydroxy-1-(pyridin-2-yl)ethyl]-2,3-dihydro-1H-isoindol-1-one] |  |  | HDAC6 inhibitory rate (%) (10 μM): 100%
O=C1c2cc(-c3nnc(C(F)F)o3)ccc2CN1[C@H](c1ccc(F)cn1)[C@@H](O)c1cccc(F)n1 (single isomer, unassigned) [Example 66, 6-[5-(difluoromethyl)-1,3,4-oxadiazol-2-yl]-2-[(1R*,2R*)-1-(5-fluoropyridin-2-yl)-2-(6-fluoropyridin-2-yl)-2-hydroxyethyl]-2,3-dihydro-1H-isoindol-1-one] |  | 100 | 
O=C1c2cc(-c3nnc(C(F)F)o3)ccc2CN1[C@H](c1ccc(F)cn1)[C@@H](O)c1cccc(F)n1 (single isomer, unassigned) [Example 67, 6-[5-(difluoromethyl)-1,3,4-oxadiazol-2-yl]-2-[(1R*,2R*)-1-(5-fluoropyridin-2-yl)-2-(6-fluoropyridin-2-yl)-2-hydroxyethyl]-2,3-dihydro-1H-isoindol-1-one] | 99 |  | 
O=C1c2cc(-c3nnc(C(F)F)o3)ccc2CN1[C@H](c1ncccn1)[C@@H](O)c1cccc(F)c1 (single isomer, unassigned) [Example 68, 6-[5-(difluoromethyl)-1,3,4-oxadiazol-2-yl]-2-[(1R*,2S*)-2-(3-fluorophenyl)-2-hydroxy-1-(pyrimidin-2-yl)ethyl]-2,3-dihydro-1H-isoindol-1-one] |  | 101 | 
O=C1c2cc(-c3nnc(C(F)F)o3)ccc2CN1[C@H](c1ncccn1)[C@@H](O)c1cccc(F)c1 (single isomer, unassigned) [Example 69, 6-[5-(difluoromethyl)-1,3,4-oxadiazol-2-yl]-2-[(1R*,2S*)-2-(3-fluorophenyl)-2-hydroxy-1-(pyrimidin-2-yl)ethyl]-2,3-dihydro-1H-isoindol-1-one] | 100 |  | 
